From patent US11045471B2, “Melanin production inhibitor, whitening agent, fibroblast activator, collagen and/or elastin production promotor and wrinkle ameliorant” (SHOWA DENKO K.K., priority 2016, dated 2021)
≈ marks a conversion by molar mass, not a printed value. One block for each compound: values may come before it.

Tests used:
[1] = tested on: human three-dimensional skin equivalent; test: Melanin production inhibition in human three-dimensional skin equivalent; assay type: cell-based; conditions: for Melanin Production Rate (relative value): 15 days culture, per cell, control (PBS) = 1
Experimental: (§1) The effect of inhibiting melanin production in human three-dimensional skin was examined. Human three-dimensional skin equivalent manufactured by MatTek Corp. was purchased and pre-cultured for 1 hour with the dedicated culture medium, EPI-100LLMM, available from the same manufacturer.
(§2) Following pre-culturing, orotic acid-glutamic acid dissolved in phosphate-buffered saline (PBS) was added to the skin surface at a final concentration of 0.2% (w/v), 0.5% (w/v) or 1.0% (w/v), or orotic acid was added to the skin surface at a final concentration of 0.5% (w/v), followed by culturing for 15 days. The cell survival rates of the human three-dimensional skin equivalent following addition of orotic acid or orotic acid-glutamic acid were measured using the Cell Count Reagent SF manufactured by Nacalai-Tesque, Inc. After culturing, the skin was transferred to medium containing 1% Cell Count Reagent SF and after culturing for 3 hours, absorbance was measured at […]. Cell survival rates were calculated as the measured value based on a value of 1 for the control.
After measuring cell survival rates in Experimental Example 2, the skin was thoroughly rinsed with PBS followed by sampling the skin and recovering in a 1.5 mL microtube. 150 μL of a dissolving solution containing sodium dodecyl sulfate (1% (w/v)), 0.05 mM ethylenediaminetetraacetate and 10 mM Tris-HCl (pH 6.8) were added thereto. After stirring, 3 μL of 5 mg/mL protease K were added followed by dissolving for 6 hours at 45° C., adding 25 μL of 500 mM […] and 5 μL of 30% aqueous hydrogen peroxide and further treating for 30 minutes at 80° C. After allowing the sample to cool to room temperature, 20 μL of a 2:1 solution of chloroform and methanol were added to the sample followed by centrifuging for 10 minutes at the highest rotating speed of the centrifuge. 80 μL aliquots of the sample supernatant were recovered onto microplates followed by measurement of absorbance at 405 nm. Melanin production rate was determined by calculating the extinction coefficient of each sample based on a value of 1 for the control and dividing that value by the cell survival rate determined in Example 2 to calculate the melanin production rate per cell.

[2] = Effect of pH on water solubility (saturated concentration by HPLC)
Experimental: (§3) Subsequently, the pH of the remaining sample solution was adjusted using 1.0 N or 0.05 N aqueous sodium hydroxide solution, and in the case all of the sample had dissolved in the solution, sample was further added followed by stirring for 15 hours at room temperature (22° C.±2° C.) so that some of the sample was left undissolved and 1 mL of supernatant was similarly collected. Supernatant was repeatedly collected while adjusting the pH as necessary to obtain samples.
(§4) The resulting samples were filtered with a membrane filter having a pore size of 22 μm followed by subjecting the resulting filtrate to high-performance liquid chromatography (HPLC).
(§5) HPLC analyses were carried out using the LC Solution and PDA detector (CBM-20A) manufactured by Shimadzu Corp. and the Shodex RSpak DM-614 column at a column temperature of 40° C. and flow rate of 0.8 ml/min while using 0.02% H3PO4 for the mobile phase.
(§6) The concentration of each sample dissolved in solution was calculated from the area of the peak that coincided with each sample in the resulting analysis data.

[3] = cited from earlier work
[4] = tested on: human three-dimensional skin equivalent; test: Cell survival rate in human three-dimensional skin equivalent (Cell Count Reagent SF); assay type: cell-based; conditions: for Cell Survival Rate (Relative Value): 15 days culture, control (PBS) = 1
Experimental: as §1, §2

[5] = tested on: aged fibroblasts (NB1RGB cells); test: Collagen production in aged human fibroblasts (human collagen type I ELISA); assay type: cell-based; conditions: 100 μM, 24 hours, culture supernatant; control = 1.00
Experimental: Aged fibroblasts were prepared. Normal human fibroblasts in the form of NB1RGB cells (purchased from the Bioresource Center of Riken Japan) were cultured to confluence in a culture flask, and after culturing for 1 hour in Dulbecco's Modified Eagle Medium (DMEM) manufactured by Sigma Corp. containing 600 μM aqueous hydrogen peroxide and 10% (w/v) fetal calf serum, the cells were washed with PBS and cultured for 24 hours after changing the medium to DMEM containing 10% (w/v) fetal calf serum. This procedure was repeated three times to obtain aged fibroblasts.
The resulting aged fibroblasts were seeded into a plastic Petri dish at a seeding density of about 10,000 cells/cm^2 and then cultured for 24 hours in Dulbecco's Modified Eagle Medium (DMEM) manufactured by Sigma Corp. containing 10% (w/v) fetal calf serum. Subsequently, orotic acid or an orotic acid derivative dissolved in purified water (Table 4) was added to the medium at a final concentration of 100 μmol/L followed by additionally culturing for 24 hours. The medium to which orotic acid or orotic acid derivative had not been added was used as a control.
The culture supernatant was recovered after culturing and collagen production was measured using a human collagen type I ELISA kit manufactured by Acel, Inc. 50 μL of culture supernatant of each sample were added to a microplate treated with collagen antibody provided with the kit. After shake culturing for 1 hour at room temperature, the plate was washed three times with the washing solution provided with the kit. 50 μL of horseradish peroxidase-avidin reagent provided with the kit were added thereto followed by shake culturing for 1 hour at room temperature. After again washing three times with the washing solution, 50 μL of the coloring solution provided with the kit were added followed by allowing to stand undisturbed for 15 minutes at room temperature and adding 50 μL aliquots of reaction stopping solution thereto. After mixing by shaking for 1 minute, absorbance was measured at 450 nm.

[6] = tested on: Normal human fibroblasts (NB1RGB cells); test: Elastin production in normal human fibroblasts (elastin assay kit); assay type: cell-based; conditions: 48 hours, control = 1.00
Experimental: Normal human fibroblasts in the form of NB1RGB cells (purchased from the Bioresource Center of Riken Japan) were seeded at a seeding density of about 10,000 cells/cm^2 and cultured for 24 hours in DMEM medium containing 10% (w/v) fetal calf serum. An orotic acid derivative according to the present invention dissolved in pure water to a final concentration of 0 μM (control), 0.1 μM, 1 μM, 10 μM or 100 μM or orotic acid dissolved in purified water to a final concentration of 100 μM was added to DMEM medium containing 10% (w/v) fetal calf serum followed by culturing for 48 hours. The cells were subsequently recovered, the elastin was extracted with an elastin assay kit manufactured by Biocolor Ltd., and absorbance of the extract was measured at a wavelength of 513 nm.

[7] = physchem; conditions: 22 °C, thermodynamic from solid
Experimental: as §3, §4, §5, §6

[8] = 22 °C, pH 2.3, water, thermodynamic from solid
[9] = 22 °C, pH 4, aqueous buffer, thermodynamic from solid

solubility thermodynamic at 15 h [2, 8]: 9.5 mg/mL (≈ 35 mM)
solubility thermodynamic at 15 h [2, 9]: 98.2 mg/mL (≈ 362 mM)
solubility at 15 h ([2]; 22 °C, pH 4.2, aqueous buffer, thermodynamic from solid): > 111 mg/mL
Compound: O=C(O)C[C@H](NC(=O)c1cc(=O)[nH]c(=O)[nH]1)C(=O)O [Orotic acid-Asp]

solubility thermodynamic at 15 h [2, 8]: 13 mg/mL (≈ 45.6 mM)
solubility thermodynamic at 15 h ([2]; 22 °C, pH 5.2, aqueous buffer, thermodynamic from solid): 54.3 mg/mL (≈ 190 mM)
Compound: O=C(O)CC[C@H](NC(=O)c1cc(=O)[nH]c(=O)[nH]1)C(=O)O [Orotic acid-Glu]
Melanin Production Rate (relative value) ([1]; 0.2% (w/v)): 0.61
Melanin Production Rate (relative value) ([1]; 0.5% (w/v)): 0.71
Melanin Production Rate (relative value) ([1]; 1% (w/v)): 0.50
Cell Survival Rate (Relative Value) ([4]; 0.2% (w/v) on skin surface): 1.4
Cell Survival Rate (Relative Value) ([4]; 0.5% (w/v) on skin surface): 1.2
Cell Survival Rate (Relative Value) ([4]; 1% (w/v) on skin surface): 0.9
Cell survival rate, statement in words ([4]; at the test concentrations 0.2%, 0.5%, 1.0% (w/v)): no decreases in cell survival rates observed
Collagen Production (relative value) [5]: 1.53
Elastin Production (relative value) ([6]; 0.1 μM): 1.20
Elastin Production (relative value) ([6]; 1 μM): 1.35
Elastin Production (relative value) ([6]; 10 μM): 1.24
Elastin Production (relative value) ([6]; 100 μM): 1.24

solubility thermodynamic at 15 h ([2]; 22 °C, pH 2.8, aqueous buffer, thermodynamic from solid): 1.1 mg/mL (≈ 5.16 mM)
solubility thermodynamic at 15 h ([2]; 22 °C, pH 3.6, aqueous buffer, thermodynamic from solid): 3.2 mg/mL (≈ 15 mM)
solubility thermodynamic at 15 h [2, 9]: 5.5 mg/mL (≈ 25.8 mM)
solubility thermodynamic at 15 h ([2]; 22 °C, pH 4.5, aqueous buffer, thermodynamic from solid): 16.6 mg/mL (≈ 77.9 mM)
solubility thermodynamic at 15 h ([2]; 22 °C, pH 5.1, aqueous buffer, thermodynamic from solid): 38.3 mg/mL (≈ 180 mM)
solubility thermodynamic at 15 h ([2]; 22 °C, pH 6.1, aqueous buffer, thermodynamic from solid): 66 mg/mL (≈ 310 mM)
Compound: O=C(O)CNC(=O)c1cc(=O)[nH]c(=O)[nH]1 [Orotic acid-Gly]
Collagen Production (relative value) [5]: 1.23

The remaining lines, values behind:

Compound: O=C(O)c1cc(=O)[nH]c(=O)[nH]1 [Orotic acid, reference compound]
Melanin Production Rate (relative value) ([1]; 0.5% (w/v)): 0.70
Effect of inhibiting melanin production, statement in words ([1]; human three-dimensional skin equivalent): superior effect of inhibiting melanin production
Saturated concentration ([2]; pH 2.3, room temperature (22° C.±2° C.)): 0.08 % (w/v)
Saturated concentration ([2]; pH 4.6, room temperature (22° C.±2° C.)): 0.27 % (w/v)
Saturated concentration ([2]; pH 4.8, room temperature (22° C.±2° C.)): 0.26 % (w/v)
Saturated concentration ([2]; pH 5.8, room temperature (22° C.±2° C.)): 0.19 % (w/v)
Saturated concentration ([2]; pH 7.1, room temperature (22° C.±2° C.)): 0.16 % (w/v)
Solubility in alcohol ([3]; alcohol such as ethanol): practically insoluble
Solubility in water ([3]; water): extremely insoluble
Cell Survival Rate (Relative Value) ([4]; 0.5% (w/v) on skin surface): 1.1
Collagen Production (relative value) [5]: 1.14
Elastin Production (relative value) ([6]; 100 μM): 1.12

Compound: O=C(N[C@@H](Cc1c[nH]cn1)C(=O)O)c1cc(=O)[nH]c(=O)[nH]1 [Orotic acid-His]
solubility thermodynamic at 15 h ([7]; pH 4.9, aqueous buffer): 2.2 mg/mL (≈ 7.5 mM)
solubility thermodynamic at 15 h ([7]; pH 7.2, aqueous buffer): 12.5 mg/mL (≈ 42.6 mM)
Collagen Production (relative value) [5]: 1.23
